In this assay the target is T1, human HIF-PHD2 (Homo sapiens, UniProt Q9GZT9).
T1 construct: FLAG-tagged full length PHD2 expressed in and purified from baculovirus-infected Sf9 cells; FLAG; made in house; host or cells: baculovirus-infected Sf9 cells
T1 sequence (Q9GZT9 whole entry): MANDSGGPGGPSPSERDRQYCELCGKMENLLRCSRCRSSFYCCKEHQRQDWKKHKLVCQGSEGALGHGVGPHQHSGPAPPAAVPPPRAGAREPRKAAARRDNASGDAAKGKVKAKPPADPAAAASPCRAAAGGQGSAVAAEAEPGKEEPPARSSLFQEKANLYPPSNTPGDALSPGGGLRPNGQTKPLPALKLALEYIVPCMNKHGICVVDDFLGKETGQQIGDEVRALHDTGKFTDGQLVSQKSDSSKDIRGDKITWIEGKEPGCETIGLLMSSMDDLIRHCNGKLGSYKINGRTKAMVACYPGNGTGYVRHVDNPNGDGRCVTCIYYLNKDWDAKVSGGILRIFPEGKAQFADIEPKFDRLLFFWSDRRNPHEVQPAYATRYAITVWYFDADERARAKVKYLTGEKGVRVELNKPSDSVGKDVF
As to the kind of experiment: HIF-PHD2 inhibition, time resolved fluorescence assay of HIF-1α peptide hydroxylation. The assay is classed as biochemical. Particulars: FLAG-tagged full length PHD2; 0.2 μM 2-oxoglutarate, 0.5 μM HIF-1α peptide. How it is done: To each well of a 384-well plate, 1 μL of test compounds in DMSO (final concentration ranging from 0.3 nM to 10 uM) were added into 20 μl of assay buffer (50 mM Tris pH 7.4/0.01% Tween-20/0.1 mg/ml bovine serum albumin/10 μM ferrous sulfate/1 mM sodium ascorbate/20 μg/ml catalase) containing 0.15 μg/ml FLAG-tagged full length PHD2 expressed in and purified from baculovirus-infected Sf9 cells. After a 5 min preincubation at room temperature, the enzymatic reactions were initiated by the addition of 4 μL of substrates {final concentrations of 0.2 μM 2-oxoglutarate and 0.5 μM HIF-1α peptide biotinyl-[…] […] After incubation for 45 minutes at room temperature, the reactions were terminated by the addition of a 25 μL quench/detection mix to a final concentration of 1 mM ortho-phenanthroline, 0.1 mM EDTA, 0.5 nM anti-(His)6 LANCE reagent (Perkin-Elmer Life Sciences), 100 nM AF647-labeled streptavidin (Invitrogen), and 2 μg/ml (His)6-VHL complex {S. Tan Protein Expr. Purif.
Turning to `Cc1cc(C#N)ccc1Cn1c2c(c(O)c(C(=O)NCC(=O)O)c1=O)COC2` [Example 49, 2-(1-(4-cyano-2-methylbenzyl)-4-hydroxy-2-oxo-1,2,5,7-tetrahydrofuro[3,4-b]pyridine-3-carboxamido)acetic acid], it took 5.1 nM to reach half-maximal inhibition (IC50).
For `C[C@H](NC(=O)c1c(O)c2c(n(Cc3ccc(C(F)(F)F)cc3)c1=O)COC2)C(=O)O` [Example 3, (S)-2-(4-hydroxy-2-oxo-1-(4-(trifluoromethyl)benzyl)-1,2,5,7-tetrahydrofuro[3,4-b]pyridine-3-carboxamido)propanoic acid], it took 36.4 nM to reach half-maximal inhibition (IC50).
`O=C(O)CNC(=O)c1c(O)c2c(n(Cc3cccc(C(=O)O)c3)c1=O)COC2` [Example 59, 3-((3-((carboxymethyl)carbamoyl)-4-hydroxy-2-oxofuro[3,4-b]pyridin-1(2H,5H,7H)-yl)methyl)benzoic acid]: the IC50 amounted to 8 nM.
Take `CC(c1ccc(C(F)(F)F)cc1)n1c2c(c(O)c(C(=O)NCC(=O)O)c1=O)COC2` (stereo not shown) [Example 56, 2-(4-hydroxy-2-oxo-1-(1-(4-(trfluoromethyl)phenyl)ethyl)-1,2,5,7-tetrahydrofuro[3,4-b]pyridine-3-carboxamido)acetic acid]: the IC50 stood at 19.6 nM.
Under `Cc1cc(Cn2c3c(c(O)c(C(=O)NCC(=O)O)c2=O)COC3)ccc1C#N` [Example 44, 2-(1-(4-cyano-3-methylbenzyl)-4-hydroxy-2-oxo-1,2,5,7-tetrahydrofuro[3,4-b]pyridine-3-carboxamido)acetic acid] stands 3.1 nM; under `O=C(O)CNC(=O)c1c(O)c2c(n(Cc3cc[nH]n3)c1=O)COC2` [Example 4, 2-(1-((1H-pyrazol-3-yl)methyl)-4-hydroxy-2-oxo-1,2,5,7-tetrahydrofuro[3,4-b]pyridine-3-carboxamido)acetic acid], 9.2 nM; under `O=C(O)CNC(=O)c1c(O)c2c(n(Cc3ccc(F)cc3)c1=O)COC2` [Example 26, 2-(1-(4-fluorobenzyl)-4-hydroxy-2-oxo-1,2,5,7-tetrahydrofuro[3,4-b]pyridine-3-carboxamido)acetic acid], 2.7 nM.
`O=C(O)CNC(=O)c1c(O)c2c(n(Cc3ncco3)c1=O)COC2` [Example 15, 2-(4-hydroxy-1-(oxazol-2-ylmethyl)-2-oxo-1,2,5,7-tetrahydrofuro[3,4-b]pyridine-3-carboxamido)acetic acid] came in with an IC50 of 9.7 nM.
With `O=C(O)CNC(=O)c1c(O)c2c(n(Cc3cccc(F)c3)c1=O)COC2` [Example 43, 2-(1-(3-fluorobenzyl)-4-hydroxy-2-oxo-1,2,5,7-tetrahydrofuro[3,4-b]pyridine-3-carboxamido)acetic acid] the figure was 8.4 nM; with `O=C(O)CNC(=O)c1c(O)c2c(n(Cc3ccccc3F)c1=O)COC2` [Example 35, 2-(1-(2-fluorobenzyl)-4-hydroxy-2-oxo-1,2,5,7-tetrahydrofuro[3,4-b]pyridine-3-carboxamido)acetic acid], 4.6 nM.
With `N#Cc1ccccc1Cn1c2c(c(O)c(C(=O)NCC(=O)O)c1=O)COC2` [Example 33, 2-(1-(2-cyanobenzyl)-4-hydroxy-2-oxo-1,2,5,7-tetrahydrofuro[3,4-b]pyridine-3-carboxamido)acetic acid] the figure was 4.6 nM; with `O=C(O)CNC(=O)c1c(O)c2c(n(Cc3ccc(Cl)cc3F)c1=O)COC2` [Example 52, 2-(1-(4-chloro-2-fluorobenzyl)-4-hydroxy-2-oxo-1,2,5,7-tetrahydrofuro[3,4-b]pyridine-3-carboxamido)acetic acid], 2.7 nM.
For `Cn1ccc(Cn2c3c(c(O)c(C(=O)NCC(=O)O)c2=O)COC3)n1` [Example 16, 2-(4-hydroxy-1-((1-methyl-1H-pyrazol-3-yl)methyl)-2-oxo-1,2,5,7-tetrahydrofuro[3,4-b]pyridine-3-carboxamido)acetic acid], the IC50 is 7.1 nM.
The molecule `N#Cc1ccc(Cn2c3c(c(O)c(C(=O)NCC(=O)O)c2=O)COC3)c(F)c1` [Example 13, 2-(1-(4-cyano-2-fluorobenzyl)-4-hydroxy-2-oxo-1,2,5,7-tetrahydrofuro[3,4-b]pyridine-3-carboxamido)acetic acid] returned an IC50 of 3 nM.
Consider `O=C(O)CNC(=O)c1c(O)c2c(n(Cc3ccc(F)c(F)c3)c1=O)COC2` [Example 31, 2-(1-(3,4-difluorobenzyl)-4-hydroxy-2-oxo-1,2,5,7-tetrahydrofuro[3,4-b]pyridine-3-carboxamido)acetic acid], for which the IC50 was found to be 2.7 nM.
With `CC(C)(C)c1ccc(Cn2c3c(c(O)c(C(=O)NCC(=O)O)c2=O)COC3)cc1` [Example 30, 2-(1-(4-(tert-butyl)benzyl)-4-hydroxy-2-oxo-1,2,5,7-tetrahydrofuro[3,4-b]pyridine-3-carboxamido)acetic acid] the figure was 4 nM; with `O=C(O)CNC(=O)c1c(O)c2c(n(Cc3ccc(F)cn3)c1=O)COC2` [Example 14, 2-(1-((5-fluoropyridin-2-yl)methyl)-4-hydroxy-2-oxo-1,2,5,7-tetrahydrofuro[3,4-b]pyridine-3-carboxamido)acetic acid], 6.6 nM.
For the molecule `COc1ccc(Cn2c3c(c(O)c(C(=O)NCC(=O)O)c2=O)COC3)cc1` [Example 28, 2-(4-hydroxy-1-(4-methoxybenzyl)-2-oxo-1,2,5,7-tetrahydrofuro[3,4-b]pyridine-3-carboxamido)acetic acid], the IC50 was 2.8 nM.
The molecule `CS(=O)(=O)c1ccc(Cn2c3c(c(O)c(C(=O)NCC(=O)O)c2=O)COC3)cc1` [Example 7, 2-(4-hydroxy-1-(4-(methylsulfonyl)benzyl)-2-oxo-1,2,5,7-tetrahydrofuro[3,4-b]pyridine-3-carboxamido)acetic acid] showed an IC50 of 7 nM.
In turn, `O=C(O)CNC(=O)c1c(O)c2c(n(Cc3cccc(Cl)c3)c1=O)COC2` [Example 38, 2-(1-(3-chlorobenzyl)-4-hydroxy-2-oxo-1,2,5,7-tetrahydrofuro[3,4-b]pyridine-3-carboxamido)acetic acid] yielded a 50% inhibitory concentration (IC50) of 4.3 nM.
Regarding `O=C(O)CNC(=O)c1c(O)c2c(n(Cc3cnc4ccccc4c3)c1=O)COC2` [Example 48, 2-(4-hydroxy-2-oxo-1-(quinolin-3-ylmethyl)-1,2,5,7-tetrahydrofuro[3,4-b]pyridine-3-carboxamido)acetic acid], the IC50 is 12.6 nM.
In turn, `O=C(O)CNC(=O)c1c(O)c2c(n(Cc3ccc(C(=O)O)cc3)c1=O)COC2` [Example 57, 4-((3-((Carboxymethyl)carbamoyl)-4-hydroxy-2-oxofuro[3,4-b]pyridin-1(2H,5H,7H)-yl)methyl)benzoic acid] gave an IC50 of 7.2 nM.
With `Cn1c2c(c(O)c(C(=O)NCC(=O)O)c1=O)COC2` [Example 55, 2-(1-methyl-4-hydroxy-2-oxo-1,2,5,7-tetrahydrofuro[3,4-b]pyridine-3-carboxamido)acetic acid] the figure was 10.4 nM; with `COc1ccc(Cn2c3c(c(O)c(C(=O)NCC(=O)O)c2=O)COC3)cn1` [Example 51, 2-(4-hydroxy-1-((6-methoxypyridin-3-yl)methyl)-2-oxo-1,2,5,7-tetrahydrofuro[3,4-b]pyridine-3-carboxamido)acetic acid], 6.8 nM.
Take `CCc1ccc(Cn2c3c(c(O)c(C(=O)NCC(=O)O)c2=O)COC3)cn1` [Example 63, 2-(4-Hydroxy-2-oxo-1-((6-ethylpyridin-3-yl)methyl)-1,2,5,7-tetrahydrofuro[3,4-b]pyridine-3-carboxamido)acetic acid]: the IC50 is 5.4 nM.

Broadly, the IC50 is the concentration that gives 50% inhibition.

(Values after patent US20170226120A1, “INHIBITORS OF HIF PROLYL HYDROXYLASE” (MERCK SHARP & DOHME CORP., priority 2014, published 2017).)
